Among the data in ChEMBL document CHEMBL1145498, “A systematic interaction map of validated kinase inhibitors with Ser/Thr kinases” (Proc Natl Acad Sci U S A, 2007) are ΔTm values, retold here.

Assay [1] has as its target Calcium/calmodulin-dependent protein kinase type II subunit beta (Homo sapiens) (UniProt Q13554).
Assay [2] has as its target Casein kinase I isoform gamma-2 (Homo sapiens) (UniProt P78368).
The target in assay [3] is Tyrosine-protein kinase JAK1 (Homo sapiens) (UniProt P23458).
Assay [4] has as its target Glycogen synthase kinase-3 beta (Homo sapiens, UniProt P49841).
In assay [5] the target is Serine/threonine-protein kinase 26 (Homo sapiens) (UniProt Q9P289).
Assay [6] concerns the target Serine/threonine-protein kinase PAK 4 (Homo sapiens) (UniProt O96013).
The target of assay [7] is Death-associated protein kinase 3 (Homo sapiens) (UniProt O43293).
Assay [8] concerns the target T1, Serine/threonine-protein kinase VRK1 (Homo sapiens) (UniProt Q99986).
T1 sequence (whole entry): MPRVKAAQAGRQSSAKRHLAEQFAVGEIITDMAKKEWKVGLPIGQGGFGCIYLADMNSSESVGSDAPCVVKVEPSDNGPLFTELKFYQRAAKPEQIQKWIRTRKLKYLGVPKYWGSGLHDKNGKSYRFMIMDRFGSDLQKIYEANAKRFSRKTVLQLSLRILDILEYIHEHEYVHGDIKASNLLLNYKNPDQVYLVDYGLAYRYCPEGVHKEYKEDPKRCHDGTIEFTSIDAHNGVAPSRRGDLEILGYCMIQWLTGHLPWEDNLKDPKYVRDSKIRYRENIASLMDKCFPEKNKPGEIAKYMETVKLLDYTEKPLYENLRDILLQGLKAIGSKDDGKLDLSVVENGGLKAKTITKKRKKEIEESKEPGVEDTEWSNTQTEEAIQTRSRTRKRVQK

In assay [9] the target is Serine/threonine-protein kinase pim-3 (Homo sapiens) (UniProt Q86V86).
The target of assay [10] is Mitogen-activated protein kinase 6 (Homo sapiens) (UniProt Q16659).
Assay [11] deals with cAMP-dependent protein kinase catalytic subunit alpha (Homo sapiens) (UniProt P17612).
In assay [12] the target is T2, Dual specificity mitogen-activated protein kinase kinase 6 (Homo sapiens) (UniProt P52564).
T2 sequence (whole entry): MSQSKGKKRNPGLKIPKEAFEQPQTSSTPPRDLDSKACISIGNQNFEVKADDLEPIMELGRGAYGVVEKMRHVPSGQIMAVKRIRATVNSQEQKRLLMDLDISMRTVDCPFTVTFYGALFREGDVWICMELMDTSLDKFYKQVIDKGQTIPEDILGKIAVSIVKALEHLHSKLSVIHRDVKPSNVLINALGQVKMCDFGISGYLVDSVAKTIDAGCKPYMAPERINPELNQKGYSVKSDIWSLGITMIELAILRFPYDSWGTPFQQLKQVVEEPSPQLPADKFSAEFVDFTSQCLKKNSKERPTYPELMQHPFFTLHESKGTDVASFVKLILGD

For assay [13], the target named is Cyclin-dependent kinase 6 (Homo sapiens) (UniProt Q00534).
The target of assay [14] is T3, Mitogen-activated protein kinase kinase kinase 5 (Homo sapiens) (UniProt Q99683).
T3 sequence (whole entry): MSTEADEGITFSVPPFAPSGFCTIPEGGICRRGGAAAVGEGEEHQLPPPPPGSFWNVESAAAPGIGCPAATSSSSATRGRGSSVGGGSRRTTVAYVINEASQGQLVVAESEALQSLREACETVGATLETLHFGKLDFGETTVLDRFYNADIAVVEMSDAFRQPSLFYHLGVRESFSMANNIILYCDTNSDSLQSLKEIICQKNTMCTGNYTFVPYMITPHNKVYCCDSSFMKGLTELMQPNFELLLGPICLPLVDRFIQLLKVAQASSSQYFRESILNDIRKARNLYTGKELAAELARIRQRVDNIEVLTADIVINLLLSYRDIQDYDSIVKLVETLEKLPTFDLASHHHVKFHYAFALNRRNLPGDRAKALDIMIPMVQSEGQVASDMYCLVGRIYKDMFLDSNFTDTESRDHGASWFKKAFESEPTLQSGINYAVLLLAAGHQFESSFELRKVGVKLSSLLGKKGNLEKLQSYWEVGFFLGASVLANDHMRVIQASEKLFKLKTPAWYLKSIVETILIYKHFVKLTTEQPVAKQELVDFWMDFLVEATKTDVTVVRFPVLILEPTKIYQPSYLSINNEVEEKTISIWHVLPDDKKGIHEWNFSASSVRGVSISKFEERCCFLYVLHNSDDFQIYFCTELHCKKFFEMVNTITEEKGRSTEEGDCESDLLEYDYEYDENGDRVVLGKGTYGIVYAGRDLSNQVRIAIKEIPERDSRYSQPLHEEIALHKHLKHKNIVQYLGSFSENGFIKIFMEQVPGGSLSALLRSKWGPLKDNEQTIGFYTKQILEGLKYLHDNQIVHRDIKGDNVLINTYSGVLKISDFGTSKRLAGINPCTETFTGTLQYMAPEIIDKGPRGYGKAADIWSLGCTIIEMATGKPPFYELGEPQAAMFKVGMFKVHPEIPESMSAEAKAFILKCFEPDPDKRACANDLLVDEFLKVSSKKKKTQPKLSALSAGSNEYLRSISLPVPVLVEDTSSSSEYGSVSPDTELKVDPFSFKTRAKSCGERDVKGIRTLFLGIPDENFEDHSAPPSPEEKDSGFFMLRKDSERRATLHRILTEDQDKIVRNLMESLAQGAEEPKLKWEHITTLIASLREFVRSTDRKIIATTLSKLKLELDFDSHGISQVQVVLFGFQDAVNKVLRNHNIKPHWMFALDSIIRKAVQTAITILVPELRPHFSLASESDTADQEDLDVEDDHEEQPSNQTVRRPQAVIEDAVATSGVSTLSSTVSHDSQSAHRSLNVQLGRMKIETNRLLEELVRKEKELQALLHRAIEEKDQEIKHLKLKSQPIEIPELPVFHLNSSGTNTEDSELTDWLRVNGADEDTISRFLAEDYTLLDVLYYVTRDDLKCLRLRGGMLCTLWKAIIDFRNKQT

For assay [15], the target named is Ribosomal protein S6 kinase alpha-3 (Homo sapiens) (UniProt P51812).

Chain of Tyrosine-protein kinase JAK1 (Homo sapiens) (P23458 whole entry): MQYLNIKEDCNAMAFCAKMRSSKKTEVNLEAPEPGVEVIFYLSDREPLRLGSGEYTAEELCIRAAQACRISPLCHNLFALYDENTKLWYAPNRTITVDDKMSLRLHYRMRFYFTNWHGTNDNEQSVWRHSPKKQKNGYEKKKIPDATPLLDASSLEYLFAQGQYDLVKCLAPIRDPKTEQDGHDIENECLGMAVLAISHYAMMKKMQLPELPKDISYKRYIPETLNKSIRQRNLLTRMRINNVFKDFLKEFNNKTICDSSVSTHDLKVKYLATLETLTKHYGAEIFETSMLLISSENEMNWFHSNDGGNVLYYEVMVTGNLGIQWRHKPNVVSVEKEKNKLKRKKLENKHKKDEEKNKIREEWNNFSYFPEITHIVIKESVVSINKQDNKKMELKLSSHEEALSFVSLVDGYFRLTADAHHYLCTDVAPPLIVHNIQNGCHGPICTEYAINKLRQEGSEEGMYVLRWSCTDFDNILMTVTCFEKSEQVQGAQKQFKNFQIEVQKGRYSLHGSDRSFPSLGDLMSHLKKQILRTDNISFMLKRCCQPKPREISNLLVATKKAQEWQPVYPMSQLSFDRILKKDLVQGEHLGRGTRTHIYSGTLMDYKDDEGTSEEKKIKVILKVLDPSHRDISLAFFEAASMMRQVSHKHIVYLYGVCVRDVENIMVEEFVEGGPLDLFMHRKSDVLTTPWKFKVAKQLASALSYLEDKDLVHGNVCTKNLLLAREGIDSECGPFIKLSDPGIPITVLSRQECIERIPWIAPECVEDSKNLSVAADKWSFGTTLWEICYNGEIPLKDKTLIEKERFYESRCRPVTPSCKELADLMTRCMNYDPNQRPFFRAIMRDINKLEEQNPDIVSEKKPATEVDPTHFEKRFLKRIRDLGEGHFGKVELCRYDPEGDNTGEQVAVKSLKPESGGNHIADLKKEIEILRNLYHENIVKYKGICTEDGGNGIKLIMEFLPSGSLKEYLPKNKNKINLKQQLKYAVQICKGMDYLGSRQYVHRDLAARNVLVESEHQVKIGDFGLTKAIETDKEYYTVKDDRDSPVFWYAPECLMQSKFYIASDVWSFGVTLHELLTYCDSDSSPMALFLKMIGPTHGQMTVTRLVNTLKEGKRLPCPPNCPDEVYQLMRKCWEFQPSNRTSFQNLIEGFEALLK
Chain of Calcium/calmodulin-dependent protein kinase type II subunit beta (Homo sapiens) (Q13554 whole entry, canonical isoform): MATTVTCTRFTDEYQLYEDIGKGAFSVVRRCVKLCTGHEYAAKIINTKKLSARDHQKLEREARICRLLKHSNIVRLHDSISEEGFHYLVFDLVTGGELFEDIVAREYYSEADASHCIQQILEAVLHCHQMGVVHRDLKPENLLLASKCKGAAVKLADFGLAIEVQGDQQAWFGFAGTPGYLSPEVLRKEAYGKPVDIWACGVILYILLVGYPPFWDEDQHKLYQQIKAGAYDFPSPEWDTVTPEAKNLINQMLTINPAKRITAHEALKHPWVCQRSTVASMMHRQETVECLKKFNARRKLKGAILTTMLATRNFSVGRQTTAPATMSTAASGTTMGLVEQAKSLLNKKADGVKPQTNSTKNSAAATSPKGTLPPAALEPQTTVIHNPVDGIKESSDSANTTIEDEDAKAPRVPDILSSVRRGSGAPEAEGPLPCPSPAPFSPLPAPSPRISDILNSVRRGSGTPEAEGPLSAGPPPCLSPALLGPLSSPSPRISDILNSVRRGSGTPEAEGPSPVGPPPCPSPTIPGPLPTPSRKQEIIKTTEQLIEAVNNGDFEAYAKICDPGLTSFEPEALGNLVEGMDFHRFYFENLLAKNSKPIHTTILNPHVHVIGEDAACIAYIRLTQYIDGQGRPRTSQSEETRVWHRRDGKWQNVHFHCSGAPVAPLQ
Chain of Mitogen-activated protein kinase 6 (Homo sapiens) (Q16659 whole entry): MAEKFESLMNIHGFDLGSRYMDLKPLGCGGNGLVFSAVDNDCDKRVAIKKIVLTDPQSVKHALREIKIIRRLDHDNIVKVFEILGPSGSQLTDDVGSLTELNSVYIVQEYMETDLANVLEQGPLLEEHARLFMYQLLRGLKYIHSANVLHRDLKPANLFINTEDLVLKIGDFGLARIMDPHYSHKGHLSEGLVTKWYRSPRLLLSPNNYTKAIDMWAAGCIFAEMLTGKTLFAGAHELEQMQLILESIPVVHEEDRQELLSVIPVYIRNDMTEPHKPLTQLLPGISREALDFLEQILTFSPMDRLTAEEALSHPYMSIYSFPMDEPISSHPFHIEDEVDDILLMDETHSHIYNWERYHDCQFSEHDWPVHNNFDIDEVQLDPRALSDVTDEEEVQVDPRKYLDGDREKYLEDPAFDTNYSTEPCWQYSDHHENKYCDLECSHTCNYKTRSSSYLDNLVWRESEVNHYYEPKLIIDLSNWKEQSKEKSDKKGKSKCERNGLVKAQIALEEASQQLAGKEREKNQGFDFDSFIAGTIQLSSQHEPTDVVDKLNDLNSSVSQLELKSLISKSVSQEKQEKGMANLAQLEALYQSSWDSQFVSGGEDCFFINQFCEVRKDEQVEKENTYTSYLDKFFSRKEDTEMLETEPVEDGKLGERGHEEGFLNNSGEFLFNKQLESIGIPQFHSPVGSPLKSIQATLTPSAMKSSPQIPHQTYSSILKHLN
Chain of Casein kinase I isoform gamma-2 (Homo sapiens) (P78368 whole entry, looked up, canonical isoform): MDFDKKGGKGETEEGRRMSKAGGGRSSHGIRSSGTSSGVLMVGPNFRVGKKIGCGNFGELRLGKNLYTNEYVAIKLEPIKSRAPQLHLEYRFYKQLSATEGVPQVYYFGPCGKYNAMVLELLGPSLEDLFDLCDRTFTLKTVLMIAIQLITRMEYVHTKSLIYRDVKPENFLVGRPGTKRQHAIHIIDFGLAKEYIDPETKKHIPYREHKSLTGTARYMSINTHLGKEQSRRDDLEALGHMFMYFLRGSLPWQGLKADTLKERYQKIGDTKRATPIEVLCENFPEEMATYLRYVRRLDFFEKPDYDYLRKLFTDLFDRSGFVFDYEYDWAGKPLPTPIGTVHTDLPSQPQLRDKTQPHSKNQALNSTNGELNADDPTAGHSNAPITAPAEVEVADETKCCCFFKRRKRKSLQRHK
Chain of Cyclin-dependent kinase 6 (Homo sapiens) (Q00534 whole entry): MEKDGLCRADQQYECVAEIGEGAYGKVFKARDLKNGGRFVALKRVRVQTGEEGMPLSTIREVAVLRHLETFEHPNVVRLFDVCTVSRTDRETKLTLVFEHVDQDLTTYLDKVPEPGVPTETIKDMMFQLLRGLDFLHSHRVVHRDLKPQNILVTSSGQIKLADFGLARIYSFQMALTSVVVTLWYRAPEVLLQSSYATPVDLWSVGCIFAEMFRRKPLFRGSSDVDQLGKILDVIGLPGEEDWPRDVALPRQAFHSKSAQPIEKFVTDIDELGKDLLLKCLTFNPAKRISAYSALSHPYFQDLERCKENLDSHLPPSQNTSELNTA
Chain of Glycogen synthase kinase-3 beta (P49841 whole entry, looked up): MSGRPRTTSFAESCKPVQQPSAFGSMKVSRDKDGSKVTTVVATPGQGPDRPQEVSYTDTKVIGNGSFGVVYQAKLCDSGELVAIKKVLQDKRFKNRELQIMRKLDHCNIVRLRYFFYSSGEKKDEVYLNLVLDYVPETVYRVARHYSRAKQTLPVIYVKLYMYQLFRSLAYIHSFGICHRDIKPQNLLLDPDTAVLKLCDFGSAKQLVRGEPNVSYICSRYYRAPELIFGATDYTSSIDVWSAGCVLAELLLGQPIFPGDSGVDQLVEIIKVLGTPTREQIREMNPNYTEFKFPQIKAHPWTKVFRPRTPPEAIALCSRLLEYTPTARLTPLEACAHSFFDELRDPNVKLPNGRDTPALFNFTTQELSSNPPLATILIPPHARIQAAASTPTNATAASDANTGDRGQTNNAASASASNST
Chain of Serine/threonine-protein kinase 26 (Homo sapiens) (Q9P289 2-416 limits assumed): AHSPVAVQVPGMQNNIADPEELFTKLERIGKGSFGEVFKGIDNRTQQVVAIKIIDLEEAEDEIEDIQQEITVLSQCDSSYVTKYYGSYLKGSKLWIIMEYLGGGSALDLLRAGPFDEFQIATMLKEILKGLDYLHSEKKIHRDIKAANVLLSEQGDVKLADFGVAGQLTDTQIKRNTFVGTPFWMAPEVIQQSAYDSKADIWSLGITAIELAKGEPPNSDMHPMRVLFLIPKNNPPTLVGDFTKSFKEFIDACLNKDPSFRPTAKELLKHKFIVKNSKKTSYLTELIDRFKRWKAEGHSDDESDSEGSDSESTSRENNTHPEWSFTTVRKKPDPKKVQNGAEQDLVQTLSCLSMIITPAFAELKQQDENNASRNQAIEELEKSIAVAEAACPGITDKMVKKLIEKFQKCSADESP
Chain of Death-associated protein kinase 3 (Homo sapiens) (O43293 whole entry, looked up): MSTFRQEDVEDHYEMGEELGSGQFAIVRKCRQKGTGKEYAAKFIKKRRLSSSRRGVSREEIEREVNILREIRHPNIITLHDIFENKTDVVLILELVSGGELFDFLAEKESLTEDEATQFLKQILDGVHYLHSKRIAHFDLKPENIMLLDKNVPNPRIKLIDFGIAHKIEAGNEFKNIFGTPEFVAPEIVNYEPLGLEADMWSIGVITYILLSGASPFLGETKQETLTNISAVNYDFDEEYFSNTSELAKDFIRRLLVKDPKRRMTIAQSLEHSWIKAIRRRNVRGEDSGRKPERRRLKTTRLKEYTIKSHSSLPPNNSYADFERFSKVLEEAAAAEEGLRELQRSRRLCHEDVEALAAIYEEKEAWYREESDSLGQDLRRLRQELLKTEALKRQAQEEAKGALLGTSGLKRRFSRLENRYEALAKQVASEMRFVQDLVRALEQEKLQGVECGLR

Regarding `N=C(N)NCCNS(=O)(=O)c1cccc2cnccc12`, the ΔTm in assay [1] was 0.4 °C; in assay [2], 0.4 °C; in [3], -0.3 °C; in assay [4] it was 0.4 °C; in assay [5], -0.3 °C; in assay [6], -0.1 °C. Moreover, the ΔTm was 2 °C in assay [7]; 0.3 °C in assay [8]; 0.8 °C in assay [9]; 0.4 °C in [10]; 1.7 °C in [11]; -0.1 °C in [12]. The ΔTm in assay [13] was 0 °C; in assay [14], 0.1 °C; in assay [15], 0.6 °C.
As to `CN(C)S(=O)(=O)c1ccc2c(c1)/C(=C/c1cc3c([nH]1)CCCC3)C(=O)N2`, the ΔTm was 2.3 °C in [1]; 0.1 °C in assay [2]; 3.6 °C in assay [3]; -0.3 °C in assay [4]; 6.3 °C in assay [5]; 1.3 °C in [6]. Further, the ΔTm in assay [7] was found to be 0.3 °C; in [8], 0.3 °C; in assay [9], 1.7 °C; in [10] it was 0.6 °C; in [11] it was 2.5 °C; in assay [12] it was 0.3 °C. The ΔTm is -0.9 °C in assay [13], 1.2 °C in assay [14] and -0.1 °C in assay [15].
As to `COc1cc2c(cc1OC)-c1n[nH]c(Nc3cccc(F)c3)c1C2`, the ΔTm in assay [1] is -0.3 °C; in assay [2], 0.3 °C; in [3] it was 0.4 °C; in assay [4] it was 2.9 °C; in assay [5] it was 1.2 °C; in assay [6] it was 0 °C. For the same compound, the ΔTm is 0.2 °C in [7]; 0.4 °C in assay [8]; 2.6 °C in [9]; -0.3 °C in [10]; 0.9 °C in assay [11]; 0.3 °C in assay [12]. Further, the ΔTm was found to be 1.7 °C in assay [13], 4 °C in assay [14] and 2.8 °C in assay [15].
As to `Nc1cccc(-c2cc3c(Oc4cccc(O)c4)ncnc3[nH]2)c1`, the ΔTm in assay [1] was determined as 0.5 °C; in assay [2], 1.2 °C; in assay [3], 4.3 °C; in [4], 7.6 °C; in assay [5], 0.8 °C; in assay [6], 2.8 °C. In addition, the ΔTm is 0.4 °C in assay [7]; 0.8 °C in [8]; 0.3 °C in assay [9]; 1.2 °C in assay [10]; -0.6 °C in assay [11]; 2.7 °C in [12]. For the same compound, the ΔTm was 0.9 °C in assay [13], 0.5 °C in assay [14] and 5.7 °C in [15].
Regarding `Cc1ccc(NC(=O)c2cccc(N(C)C)c2)cc1NC(=O)c1ccc(O)cc1`, the ΔTm in assay [1] came to 0.4 °C; in assay [2], 0.2 °C; in assay [3], 0.1 °C; in [4], 0 °C; in [5], 0.7 °C; in assay [6] it was 0.4 °C. Besides, the ΔTm in [7] was -0.4 °C; in [8], -0.3 °C; in assay [9], 0.6 °C; in assay [10] it was 0.4 °C; in assay [11] it was 0.9 °C; in assay [12] it was 0 °C. In addition, the ΔTm in assay [13] was -0.4 °C; in assay [14], -0.4 °C; in assay [15] it was -0.1 °C.
For the compound `O=c1c2ccccc2[nH]c(=S)n1CCN1CCC(=C(c2ccc(F)cc2)c2ccc(F)cc2)CC1` [DIACYLGLYCEROL KINASE INHIBITOR II], the ΔTm in [1] was -1 °C; in assay [2] it was 0.5 °C; in assay [3], 0.6 °C; in assay [4], 1.9 °C; in assay [5] it was 2.4 °C; in assay [6], 1.3 °C. Moreover, the ΔTm in [7] is 1.6 °C; in [8], -0.2 °C; in [9] it was 0.9 °C; in [10], -0.1 °C; in [11], 0.8 °C; in [12], 0.4 °C. Moreover, the ΔTm is -0.4 °C in assay [13], -0.7 °C in assay [14] and 0.3 °C in assay [15].
Consider `O=c1c(O)c(-c2ccc(O)c(O)c2)oc2cc(O)cc(O)c12` [QUERCETIN], for which the ΔTm was 2.9 °C in assay [1]; 2.4 °C in assay [2]; 8.2 °C in assay [3]; 7.8 °C in assay [4]; 4.4 °C in assay [5]; 2.3 °C in assay [6]. Also, the ΔTm in assay [7] was found to be 7.5 °C; in assay [8], 1.4 °C; in assay [9], 8.8 °C; in assay [10], 0.8 °C; in [11], 4.2 °C; in assay [12], 3.6 °C. For the same compound, the ΔTm in [13] amounted to 1.9 °C; in assay [14] it was 3.4 °C; in [15], 6.6 °C.
